In general, pIC50 refers to the negative decadic logarithm of the IC50, by convention in mol/L. Low readings indicate a high IC50, high ones a low IC50.

The target in one test is T1, NLRP3 inflammasome (Homo sapiens, UniProt Q96P20).
T1 construct: IL-1beta HTRF
Briefly: IL-1β TR-FRET assay (THP-1 cells differentiated to macrophages with IFN-γ, LPS primed, ATP activated; HTRF). It is filed as cell-based. The following applies: THP-1 macrophages, 50 ng/mL LPS priming, compound 30 min, 20 mM ATP 2 hours. The essentials: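 IL-1β release was read by HTRF after 16–24 h antibody incubation at room temperature, using supernatants from THP-1-derived macrophages (IFN-γ 25 ng/mL, LPS 50 ng/mL priming) given compound 30 min and then 20 mM ATP for 2 h. % inhibition versus concentration was fitted logistically for IC50.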

For a further test, the system named is NF-κB pathway. Briefly: TNF-α assay (THP-1 cells differentiated to macrophages with IFN-γ, NF-κB pathway activated with LPS; ELISA). Type of test: cell-based, Human. The following applies: Homo sapiens, THP-1, THP-1 macrophages, compound 30 min, 50 ng/mL LPS 3 hours. A digest of the protocol:
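TNF-α release measured by ELISA after 3 h stimulation with 50 ng/mL LPS, following 30 min compound pretreatment (37 °C, no FBS). Cells were THP-1 macrophages primed with IFN-γ 25 ng/mL for 24 h. IC50 derived by logistic curve fit.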
(In general: An ELISA detects its analyte on a solid surface through an enzyme-linked reagent.)

SMILES strings stand for the structures. pIC50: −log10 of the molar value.

T1 sequence (Q96P20 whole entry): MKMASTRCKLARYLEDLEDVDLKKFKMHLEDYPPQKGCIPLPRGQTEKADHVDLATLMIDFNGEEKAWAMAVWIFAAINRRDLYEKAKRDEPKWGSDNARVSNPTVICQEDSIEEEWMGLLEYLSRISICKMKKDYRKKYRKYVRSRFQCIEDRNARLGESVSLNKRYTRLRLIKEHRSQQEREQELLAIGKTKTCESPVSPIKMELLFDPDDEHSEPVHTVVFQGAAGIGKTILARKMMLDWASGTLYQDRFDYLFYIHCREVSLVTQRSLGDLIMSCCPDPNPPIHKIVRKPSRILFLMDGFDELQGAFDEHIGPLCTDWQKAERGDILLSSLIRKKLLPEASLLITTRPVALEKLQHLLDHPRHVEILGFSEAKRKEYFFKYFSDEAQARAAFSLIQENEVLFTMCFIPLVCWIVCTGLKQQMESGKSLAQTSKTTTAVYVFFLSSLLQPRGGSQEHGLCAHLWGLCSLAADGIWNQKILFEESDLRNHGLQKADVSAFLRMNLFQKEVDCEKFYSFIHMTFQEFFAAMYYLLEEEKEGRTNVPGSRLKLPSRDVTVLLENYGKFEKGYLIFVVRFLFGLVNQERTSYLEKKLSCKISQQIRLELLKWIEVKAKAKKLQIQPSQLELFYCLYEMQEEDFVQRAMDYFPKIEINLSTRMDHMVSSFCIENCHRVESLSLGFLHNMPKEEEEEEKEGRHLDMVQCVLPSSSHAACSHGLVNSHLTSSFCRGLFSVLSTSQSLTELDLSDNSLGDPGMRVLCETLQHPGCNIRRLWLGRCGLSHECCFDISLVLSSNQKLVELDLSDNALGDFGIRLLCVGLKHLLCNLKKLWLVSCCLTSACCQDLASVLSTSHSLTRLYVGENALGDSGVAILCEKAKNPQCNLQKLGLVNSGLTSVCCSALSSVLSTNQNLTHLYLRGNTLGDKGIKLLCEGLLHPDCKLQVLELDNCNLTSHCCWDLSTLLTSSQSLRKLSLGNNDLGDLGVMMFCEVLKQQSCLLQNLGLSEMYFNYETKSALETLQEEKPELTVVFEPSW

Consider `Cc1cc(C)c(-n2cc3sc(NC4CCCN(C)C4=O)nc3n2)c(O)c1` (stereo not shown) [Example 118, 3-{[2-(2-hydroxy-4,6-dimethylphenyl)-2H-pyrazolo[3,4-d][1,3]thiazol-5-yl]amino}-1-methylpiperidin-2-one], for which the pIC50 against NLRP3 inflammasome is 6.11; with NF-κB pathway, under 4.52.
In the case of `CO[C@H](C)CNc1nc2nn(-c3c(C)cc(C)cc3O)cc2s1` [Example 120, 2-(5-{[(2R)-2-methoxypropyl]amino}-2H-pyrazolo[3,4-d][1,3]thiazol-2-yl)-3,5-dimethylphenol], the pIC50 is 6.14 against NLRP3 inflammasome and under 4.52 in the test with NF-κB pathway.
Regarding `Cc1cc(C)c(-n2cc3sc(NC4CCN(S(C)(=O)=O)CC4)nc3n2)c(O)c1` [Example 128, 2-(5-{[1-(methanesulfonyl)piperidin-4-yl]amino}-2H-pyrazolo[3,4-d][1,3]thiazol-2-yl)-3,5-dimethylphenol], the pIC50 against NLRP3 inflammasome is 5.92; in the test on NF-κB pathway it was under 4.52.
On to `Cc1cc(C)c(-n2cc3sc(NC4CCN(CC(F)F)CC4)nc3n2)c(O)c1` [Example 129, 2-(5-{[1-(2,2-difluoroethyl)piperidin-4-yl]amino}-2H-pyrazolo[3,4-d][1,3]thiazol-2-yl)-3,5-dimethylphenol], for which the pIC50 on NLRP3 inflammasome was 5.64; in the test on NF-κB pathway it was under 5.00.
On the same counts, the results for `COC(=O)N1CCC(Nc2nc3nn(-c4c(C)cc(C)cc4O)cc3s2)CC1` [Example 130, methyl 4-{[2-(2-hydroxy-4,6-dimethylphenyl)-2H-pyrazolo[3,4-d][1,3]thiazol-5-yl]amino}piperidine-1-carboxylate] are 5.96 and under 4.52.
Regarding `CNC(=O)N1CCC(Nc2nc3nn(-c4c(C)cc(C)cc4O)cc3s2)CC1` [Example 131, 4-{[2-(2-hydroxy-4,6-dimethylphenyl)-2H-pyrazolo[3,4-d][1,3]thiazol-5-yl]amino}-N-methylpiperidine-1-carboxamide], the pIC50 is 6.24 on NLRP3 inflammasome and under 4.52 in the test with NF-κB pathway.
On the same counts, the results for `CCC(=O)N1CCC(Nc2nc3nn(-c4c(C)cc(C)cc4O)cc3s2)CC1` [Example 132, 1-(4-{[2-(2-hydroxy-4,6-dimethylphenyl)-2H-pyrazolo[3,4-d][1,3]thiazol-5-yl]amino}piperidin-1-yl)propan-1-one] are 6.00 and under 4.52.
`CC(=O)N1CCC(Nc2nc3nn(-c4c(C)cc(C)cc4O)cc3s2)CC1` [Example 133, 1-(4-{[2-(2-hydroxy-4,6-dimethylphenyl)-2H-pyrazolo[3,4-d][1,3]thiazol-5-yl]amino}piperidin-1-yl)ethan-1-one]: the pIC50 is 6.06 at NLRP3 inflammasome and under 4.52 in the test with NF-κB pathway.
Taken in the same sequence, the figures for `COc1cc(C)c(-n2cc3sc(N[C@@H]4CN(C)C[C@H]4F)nc3n2)c(O)c1` [Example 134, 2-(5-{[(3R,4R)-4-fluoro-1-methylpyrrolidin-3-yl]amino}-2H-pyrazolo[3,4-d][1,3]thiazol-2-yl)-5-methoxy-3-methylphenol] were 5.82 and under 5.00.
As for `COc1cc(C)c(-n2cc3sc(N[C@H]4CN(C)C[C@@H]4F)nc3n2)c(O)c1` [Example 135, 2-(5-{[(3S,4S)-4-fluoro-1-methylpyrrolidin-3-yl]amino}-2H-pyrazolo[3,4-d][1,3]thiazol-2-yl)-5-methoxy-3-methylphenol], the figures for the pIC50 on NLRP3 inflammasome and in the test with NF-κB pathway were 7.05 and under 5.00, respectively.
Regarding `Cc1cc(C)c(-n2cc3sc(N[C@H]4CCN(C)C(=O)C4)nc3n2)c(O)c1` [Example 136, (4S)-4-{[2-(2-hydroxy-4,6-dimethylphenyl)-2H-pyrazolo[3,4-d][1,3]thiazol-5-yl]amino}-1-methylpiperidin-2-one], the pIC50 was 5.48 against NLRP3 inflammasome and under 4.52 in the test with NF-κB pathway.
On the same counts, the results for `Cc1cc(C)c(-n2cc3sc(N[C@@H]4CCN(C)C(=O)C4)nc3n2)c(O)c1` [Example 137, (4R)-4-{[2-(2-hydroxy-4,6-dimethylphenyl)-2H-pyrazolo[3,4-d][1,3]thiazol-5-yl]amino}-1-methylpiperidin-2-one] are 5.96 and under 4.52.
On the same counts, the results for `Cc1cc(C)c(-n2cc3sc(NCC4(F)CCC4)nc3n2)c(O)c1` [Example 138, 2-(5-{[(1-fluorocyclobutyl)methyl]amino}-2H-pyrazolo[3,4-d][1,3]thiazol-2-yl)-3,5-dimethylphenol] are 6.22 and under 5.00.
As to `Cc1cc(C)c(-n2cc3sc(NCC(C)(F)F)nc3n2)c(O)c1` [Example 139, 2-{5-[(2,2-difluoropropyl)amino]-2H-pyrazolo[3,4-d][1,3]thiazol-2-yl}-3,5-dimethylphenol], the results for the pIC50 at NLRP3 inflammasome and in the test with NF-κB pathway were 6.55 and under 5.00, respectively.
Consider `Cc1cc(C)c(-n2cc3sc(NC(C)C(C)O)nc3n2)c(O)c1` (stereo not shown) [Example 140, 2-{5-[(3-hydroxybutan-2-yl)amino]-2H-pyrazolo[3,4-d] [1,3]thiazol-2-yl}-3,5-dimethylphenol], for which the pIC50 against NLRP3 inflammasome is 6.40; with NF-κB pathway, under 4.52.
Taken in the same sequence, the figures for `Cc1cc(O)c(-n2cc3sc(NC[C@@H](C)O)nc3n2)c(C2CC2(F)F)c1` (stereo partly drawn) [Example 141, 3-(2,2-difluorocyclopropyl)-2-(5-{[(2R)-2-hydroxypropyl]amino}-2H-pyrazolo[3,4-d][1,3]thiazol-2-yl)-5-methylphenol] were 7.23 and under 4.52.
On the same counts, the results for `Cc1cc(C)c(-n2cc3sc(N[C@H]4COC[C@H]4F)nc3n2)c(O)c1` [Example 144, 2-(5-{[(3R,4R)-4-fluorooxolan-3-yl]amino}-2H-pyrazolo [3,4-d][1,3]thiazol-2-yl)-3,5-dimethylphenol or 2-(5-{[(3S,4S)-4-fluorooxolan-3-yl]amino}-2H-pyrazolo[3,4-d][1,3]thiazol-2-yl)-3,5-dimethylphenol (tR1)] are 6.07 and under 4.52.
`Cc1cc(C)c(-n2cc3sc(NCC(F)F)nc3n2)c(O)c1` [Example 146, 2-{5-[(2,2-difluoroethyl)amino]-2H-pyrazolo[3,4-d][1,3]thiazol-2-yl}-3,5-dimethylphenol]: the pIC50 at NLRP3 inflammasome is 6.42; in the test with NF-κB pathway it was under 4.52.
Consider `Cc1cc(C)c(-n2cc3sc(NC4(C(F)F)CC4)nc3n2)c(O)c1` [Example 147, 2-(5-{[1-(difluoromethyl)cyclopropyl]amino}-2H-pyrazolo[3,4-d][1,3]thiazol-2-yl)-3,5-dimethylphenol], for which the pIC50 on NLRP3 inflammasome was 6.08; in the test on NF-κB pathway, under 5.00.
Take `Cc1cc(O)c(-n2cc3sc(NCC(C)(C)O)nc3n2)c(C2CC2(F)F)c1` (stereo not shown) [Example 148]: the results for the pIC50 at NLRP3 inflammasome and in the test on NF-κB pathway were 6.89 and under 4.52, respectively.
On the same counts, the results for `Cc1cc(O)c(-n2cc3sc(NC45CCC(O)(CC4)C5)nc3n2)c(C2CC2(F)F)c1` (stereo not shown) [Example 149, 4-({2-[2-(2,2-difluorocyclopropyl)-6-hydroxy-4-methylphenyl]-2H-pyrazolo[3,4-d][1,3]thiazol-5-yl}amino)bicyclo[2.2.1]heptan-1-ol] are 7.18 and under 4.52.
Taken in the same sequence, the figures for `CCc1cc(C)cc(O)c1-n1cc2sc(NC34CCC(O)(CC3)C4)nc2n1` [Example 150, 4-{[2-(2-ethyl-6-hydroxy-4-methylphenyl)-2H-pyrazolo[3,4-d][1,3]thiazol-5-yl]amino}bicyclo[2.2.1]heptan-1-ol] were 6.92 and under 5.00.
Taken in the same sequence, the figures for `Cc1cc(C)c(-n2cc3sc(NC4C5CC6CC4CC(O)(C6)C5)nc3n2)c(O)c1` (stereo not shown) [Example 151, 4-{[2-(2-hydroxy-4,6-dimethylphenyl)-2H-pyrazolo[3,4-d][1,3]thiazol-5-yl]amino} adamantan-1-ol] were 5.17 and under 5.00.
On to `Cc1cc(C)c(-n2cc3sc(NCC(F)(F)CO)nc3n2)c(O)c1` [Example 152, 2-{5-[(2,2-difluoro-3-hydroxypropyl)amino]-2H-pyrazolo[3,4-d][1,3]thiazol-2-yl}-3,5-dimethylphenol], for which the values for the pIC50 against NLRP3 inflammasome and in the test with NF-κB pathway were 6.55 and under 4.52, respectively.
On the same counts, the results for `Cc1cc(C)c(-n2cc3sc(N[C@@H]4CCN(C(=O)OC5CC5)C4)nc3n2)c(O)c1` [Example 153, cyclopropyl (3R)-3-{[2-(2-hydroxy-4,6-dimethylphenyl)-2H-pyrazolo[3,4-d][1,3]thiazol-5-yl]amino}pyrrolidine-1-carboxylate] are 6.57 and under 4.52.
On the same counts, the results for `Cc1cc(C)c(-n2cc3sc(N[C@H]4CCN(C(=O)OC5CC5)C4)nc3n2)c(O)c1` [Example 154, cyclopropyl (3S)-3-{[2-(2-hydroxy-4,6-dimethylphenyl)-2H-pyrazolo[3,4-d][1,3]thiazol-5-yl]amino}pyrrolidine-1-carboxylate] are 5.72 and under 4.52.
As for `COC(=O)N1CC[C@@H](Nc2nc3nn(-c4c(C)cc(C)cc4O)cc3s2)C1` [Example 155, methyl (3R)-3-{[2-(2-hydroxy-4,6-dimethylphenyl)-2H-pyrazolo[3,4-d][1,3]thiazol-5-yl]amino}pyrrolidine-1-carboxylate], the pIC50 at NLRP3 inflammasome is 6.47; in the test on NF-κB pathway, under 4.52.
Taken in the same sequence, the figures for `COC(=O)N1CC[C@H](Nc2nc3nn(-c4c(C)cc(C)cc4O)cc3s2)C1` [Example 156, methyl (3S)-3-{[2-(2-hydroxy-4,6-dimethylphenyl)-2H-pyrazolo[3,4-d][1,3]thiazol-5-yl]amino}pyrrolidine-1-carboxylate] were 5.70 and under 5.00.
Taken in the same sequence, the figures for `Cc1cc(C)c(-n2cc3sc(N[C@@H]4CCOC4)nc3n2)c(O)c1` [Example 157, 3,5-dimethyl-2-(5-{[(3R)-oxolan-3-yl]amino}-2H-pyrazolo[3,4-d][1,3]thiazol-2-yl)phenol] were 6.48 and under 4.52.
